We go through three molecules from patent publication US20140081017A1, “Histone Deacetylase Inhibitors for Enhancing Activity of Antifungal Agents” (METHYLGENE INC., priority 2012, published 2014).

The subject of assay [1] is C. glabrata. As to conditions: based on a prior study / previously observed; cited from earlier work.
Assay [2] relates to Candida parapsilosis. The conditions noted are these: range not explained, cited from earlier work.
Assay [3] relates to Candida parapsilosis. As to the kind of experiment: Minimal Inhibitory Concentration (MIC) assay, broth microdilution per CLSI.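 Also: two read times 24 hr and 48 hr of incubation.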 The assay is classed as cell-based. The conditions noted are these: Lodderomyces parapsilosis, read-out: Minimum Inhibitory Concentrations against Yeast Isolates, Candida parapsilosis. The procedure, abridged: (§1)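 Yeasts incubated ~24-48 hr at 35°C in MOPS-buffered RPMI (0.165 M, pH 7.0) containing DMSO-dissolved compound, following CLSI microdilution. Inoculum: 0.5 McFarland, diluted 1:100. MIC read visually as lowest concentration inhibiting growth (prominent-decrease endpoint for fluconazole).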

The next assay relates to Candida glabrata. The description is as above. In kind it is cell-based. As to conditions: Nakaseomyces glabratus, read-out: Minimum Inhibitory Concentrations against Yeast Isolates, Candida glabrata. An outline of the steps:
as §1

In assay [4] the test system is Candida albicans. The assay is described as above. In kind it is cell-based. The conditions noted are these: Candida albicans, read-out: Minimum Inhibitory Concentrations against Yeast Isolates, Candida albicans. The procedure, abridged:
as §1

Assay [5] has as its system Candida albicans. As to conditions: 48 hr; range not explained; cited from earlier work.
The test system of assay [6] is C. glabrata. As to the kind of experiment: Checkerboard FIC assay in combination with fluconazole (MIC alone and in combination, FICI). The conditions noted are these: for MIC: Nakaseomyces glabratus. The assay is classed as cell-based, Candida glabrata. An outline of the steps:
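C. glabrata was tested by CLSI broth microdilution checkerboard, crossing 2-fold dilutions of compound with 2-fold dilutions of fluconazole. The medium was RPMI with 0.165 M MOPS at pH 7.0, inoculated from a 0.5 McFarland suspension diluted 1:100, then incubated about 48 h at 35 °C. Single-agent MICs gave the FIC and FICI values.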

The mark [7] stands for this setting: 24 hr reading (first value of cell 24 hr/48 hr).
[8] abbreviates: 48 hr reading (second value of cell 24 hr/48 hr).
Setting [9] is: C. glabrata, FICI calculated using a fluconazole MIC of 16 μg/mL.
[10] abbreviates: C. glabrata, FICI using a fluconazole MIC of 128 μg/mL.

In brackets after ≈: the same amount, converted by molar mass. Where two headings read alike, the source gives them in different places. Some results are limits rather than exact numbers.
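For Minimum Inhibitory Concentrations against Yeast Isolates, Candida albicans in this document: two read times 24 hr and 48 hr of incubation.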
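For Minimum Inhibitory Concentrations against Yeast Isolates, Candida glabrata in this document: two read times 24 hr and 48 hr of incubation.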

With `OC(Cn1cncn1)(Cn1cncn1)c1ccc(F)cc1F` [Fluconazole, reference compound], the “MIC of fluconazole alone against both test isolates” value with C. glabrata [1] is more than 64 mg/L. Moreover, the figures for the “MIC range in parentheses below the comparator's MIC, Candida parapsilosis” value in the assay on Candida parapsilosis [2] (24 hr) and with Candida parapsilosis [2] (48 hr) were 0.5 to 4 mg/L and 1 to 4 mg/L, respectively. Further, the MIC was 2 mg/L (≈ 6.53 µM) with Candida parapsilosis [3] (setting [7]); 4 mg/L (≈ 13.1 µM) in the assay on Candida parapsilosis [3] (setting [8]); 4 mg/L (≈ 13.1 µM) in the assay with Candida glabrata (setting [7]); 8 mg/L (≈ 26.1 µM) in the assay with Candida glabrata (setting [8]); 0.25 mg/L (≈ 0.816 µM) in the assay on Candida albicans [4] (setting [7]); 1 mg/L (≈ 3.27 µM) with Candida albicans [4] (setting [8]). Moreover, the MIC with C. glabrata [6] (C. glabrata, this study, checkerboard assay, read-out: MIC of fluconazole alone against both test isolates) was more than 8 mg/L. Moreover, in the assay with Candida albicans [5], the “MIC range in parentheses below the comparator's MIC, Candida albicans” value was “(NA/0.25-1) ug/mL”.

For `CC[C@H](C)C[C@H](C)CCCCCCCCC(=O)N[C@H]1C[C@@H](O)[C@@H](NCCN)NC(=O)[C@@H]2[C@@H](O)CCN2C(=O)[C@H]([C@H](O)CCN)NC(=O)[C@H]([C@H](O)[C@@H](O)c2ccc(O)cc2)NC(=O)[C@@H]2C[C@@H](O)CN2C(=O)[C@H]([C@@H](C)O)NC1=O` [Caspofungin, reference compound], the “MIC range in parentheses below the comparator's MIC, Candida parapsilosis” value in the assay with Candida parapsilosis [2] (24 hr) is 0.25 to 1 mg/L. Besides, the MIC was 0.5 mg/L (≈ 0.457 µM) with Candida parapsilosis [3] (setting [7]); 0.5 mg/L (≈ 0.457 µM) in the assay on Candida parapsilosis [3] (setting [8]); 0.12 mg/L (≈ 0.11 µM) in the assay on Candida glabrata (setting [7]); 0.12 mg/L (≈ 0.11 µM) in the assay on Candida glabrata (setting [8]); 0.06 mg/L (≈ 0.0549 µM) in the assay on Candida albicans [4] (setting [7]); 0.06 mg/L (≈ 0.0549 µM) in the assay with Candida albicans [4] (setting [8]).

As to `O=C(Cc1ccc(CCCCc2ccc(NC(=O)NCCN3CCOCC3)cc2)cc1)NO` [Example 47, N-hydroxy-2-(4-(4-(4-(3-(2-morpholinoethyl)ureido)phenyl)butyl)phenyl)acetamide], the MIC in the assay on Candida parapsilosis [3] (setting [7]) was more than 32 mg/L; with Candida parapsilosis [3] (setting [8]) it was more than 32 mg/L; in the assay on Candida glabrata (setting [7]), 4 mg/L (≈ 8.8 µM); in the assay on Candida glabrata (setting [8]), 16 mg/L (≈ 35.2 µM); in the assay with Candida albicans [4] (setting [7]), more than 32 mg/L; with Candida albicans [4] (setting [8]), more than 32 mg/L. For the same molecule, the MIC in the assay with C. glabrata [6] (MIC of the example compound alone against C. glabrata in the checkerboard assay, approximately 48 hr, read-out: Methylgene MIC) came to 16 mg/L; with C. glabrata [6] (test compound alone, C. glabrata, approx. 48 hr at 35° C., read-out: Compound MIC) it was 16 mg/L. In the assay with C. glabrata [6] (setting [9]), the “FICI of combination resulting in fluconazole MIC of: 2 ug/mL” value is 0.563. In addition, in the assay on C. glabrata [6] (setting [9]), the “FICI of combination resulting in fluconazole MIC of: 4 ug/mL” value is 0.375. In the assay with C. glabrata [6] (setting [9]), the “FICI of combination resulting in fluconazole MIC of: 8 ug/mL” value is given as 0.500. Further, in the assay on C. glabrata [6] (setting [10]), the “FICI of combination resulting in fluconazole MIC of: 2 ug/mL (value in parenthesis)” value was found to be 0.516. The “FICI of combination resulting in fluconazole MIC of: 4 ug/mL (value in parenthesis)” value with C. glabrata [6] (setting [10]) turned out to be 0.281. Besides, in the assay with C. glabrata [6] (setting [10]), the “FICI of combination resulting in fluconazole MIC of: 8 ug/mL (value in parenthesis)” value was determined as 0.313. Also, in the assay with C. glabrata [6] (concentration in combination as multiple of the compound's MIC alone, fluconazole MIC 2 ug/mL), the “Multiple of compound MIC to synergize fluconazole MIC to 2 ug/mL” value is given as “(½x)”. Further, the “Multiple of compound MIC to synergize fluconazole MIC to 4 ug/mL” value in the assay with C. glabrata [6] (concentration in combination as multiple of the compound's MIC alone, fluconazole MIC 4 ug/mL) was “(¼x)”. For the same molecule, the “Multiple of compound MIC to synergize fluconazole MIC to 8 ug/mL” value in the assay on C. glabrata [6] (concentration in combination as multiple of the compound's MIC alone, fluconazole MIC 8 ug/mL) was “(¼x)”. Also, the “Concentration of Methylgene compound to synergize fluconazole MIC to 2 ug/mL” value in the assay with C. glabrata [6] (in combination with fluconazole, C. glabrata, fluconazole MIC lowered to 2 ug/mL) stood at 8 mg/L. Besides, the “Concentration of Methylgene compound to synergize fluconazole MIC to 4 ug/mL” value with C. glabrata [6] (in combination with fluconazole, C. glabrata, fluconazole MIC lowered to 4 ug/mL) came out at 4 mg/L. Besides, the “Concentration of Methylgene compound to synergize fluconazole MIC to 8 ug/mL” value with C. glabrata [6] (in combination with fluconazole, C. glabrata, fluconazole MIC lowered to 8 ug/mL) is 4 mg/L.
